According to patent publication US7744909B2, “Dispersions for the formulation of slightly or poorly soluble agents” (Abbott GmbH & Co., KG, priority 2000, dated 2010):
Converted amounts (≈) assume the structure as drawn.

Experiments:
[1] = Solubility of Amphotericin in standard oils (soya oil, Miglyol 812); format: physicochemical; settings: oil or lipid
Experimental: The solubility of Amphotericin in soya oil (Long-chain Triglycerides—LCT) and in Miglyol 812 (Medium-chain Triglycerides—MCT), the standard oils for most commercially available emulsions for parenteral infusion is less than 0.0001 mg/ml.
(§1) The dispersions contains the active ingredient dissolved in an amount, which is greater than that amount which is the result of the mathematical addition of its maximal solubility in each of the water phase and the oil phase of the emulsion, which “addition amount” is determined under standard conditions (20° C., standard pressure) by dissolving the maximal amount of active ingredient in the separate oil and aqueous phases (maintaining the other dissolution conditions identical) corresponding to the proportions in the dispersion (saturation concentrations).

[2] = Solubility of Amphotericin B in water; format: physicochemical; settings: for solubility: water
Experimental: Thus the solubility of Amphotericin B in water is less than 0.001% (<0.01 mg/ml) at pH 6-7, i.e. the pH value of the emulsion. It is true that the solubility of Amphotericin is higher with pH 2 and pH 11 (0.1 mg/ml), however these solutions cannot be administered intravenously.
as §1

[3] = oral administration; cited from earlier work
[4] = Additive solubility in oil and water phase versus quantity dissolved in the emulsion; format: physicochemical
Experimental: Preferably, the quantity of active ingredient dissolved is greater than the additive quantity by a factor of 2, more preferably 5, still more preferably 10 or even greater. The “additive quantity” is determined by dissolving the maximum possible quantity of active ingredient in the separate oily and aqueous phases (dissolving conditions being otherwise identical) corresponding to the constituents in the dispersion (saturation concentration), no further additional organic solvents being used. The dispersion according to the invention contains, in addition to the additive quantity, a superadditive quantity of dissolved active ingredient.
40 g emulsion from Example 1 consist 20% of oil (8 g) and ca. 80% of water (32 g). Thus on the basis of these solubilities, 8×0.0001 mg/ml plus 32×0.01 mg/ml, i.e. in total 0.3208 mg Amphotericin can be dissolved in 40 g emulsion components oil and water (i.e. approx. 0.008 mg/ml emulsion). In the present emulsion according to the invention 0.2 mg/ml emulsion could be incorporated (Example 1) without microscopic crystals of undissolved drug being detectable (Example 12).
Dissolved active ingredient is rapidly available. […] The solubility in water and oil phase amounts to, for example, 0.008 mg/ml in the case of Amphotericin B, the emulsion according to the invention dissolves without detectable crystals e.g. 0.2 mg/ml (Example 1). If 5 mg/ml dispersion is incorporated, the solubility is exceeded (supersaturated system).
as §1

For `C[C@@H]1[C@H](O)[C@@H](C)/C=C/C=C/C=C/C=C/C=C/C=C/C=C/[C@H](O[C@@H]2O[C@H](C)[C@@H](O)[C@H](N)[C@@H]2O)C[C@@H]2O[C@](O)(C[C@@H](O)C[C@@H](O)[C@H](O)CC[C@@H](O)C[C@@H](O)CC(=O)O[C@H]1C)C[C@H](O)[C@H]2C(=O)O` [Amphotericin B], the solubility ([1]; Miglyol 812 (medium-chain triglycerides, MCT), read-out: solubility in Miglyol 812 (Medium-chain Triglycerides, MCT)) was < 0.1 µg/mL, the solubility ([1]; soya oil (long-chain triglycerides, LCT), read-out: solubility in soya oil (Long-chain Triglycerides, LCT)) was < 0.1 µg/mL and the solubility in water ([2]; pH 6-7, the pH value of the emulsion) was “less than 0.001%”. For the same compound, the solubility ([2]; pH 2, aqueous buffer, read-out: solubility) was 100 µg/mL (≈ 108 µM), the solubility ([2]; pH 11, aqueous buffer, read-out: solubility) was 100 µg/mL (≈ 108 µM) and the solubility ([2]; pH 6-7, the pH value of the emulsion, read-out: solubility in water) was < 10 µg/mL. The bioavailability [3] was “almost zero”, the “quantity that can be dissolved in 40 g emulsion components oil and water” value ([4]; 8 g oil plus 32 g water, calculated from the separate solubilities) was 0.3208 mg and the solubility ([4]; 20 °C, oil or lipid, per ml emulsion, calculated from the separate solubilities) was ~8 µg/mL (≈ 8.66 µM). The “quantity dissolved in the emulsion without detectable crystals” value ([4]; emulsion according to the invention (Example 1), Lipofundin N 20%) was 0.2 mg/mL and the “solubility in water and oil phase (additive quantity)” value ([4]; per ml emulsion, calculated from the separate solubilities) was 8 µg/mL (≈ 8.66 µM).
